Measurements published in patent US4039736A (Bristol-Myers Company, priority 1976, dated 1977).
≈ marks a conversion by molar mass, not a printed value. Where two headings read alike, the source gives them in different places.

What was measured:
[1] = system: Streptococcus pneumoniae A-9585; experiment: MIC, standard tube dilution procedure; format: cell-based; conditions: A9585
[2] = system: Streptococcus pyogenes A-9604; experiment: MIC, standard tube dilution procedure; format: cell-based; conditions: A9604
[3] = system: Staphylococcus aureus A-9497; experiment: MIC, standard tube dilution procedure; format: cell-based; conditions: A9497
[4] = system: Staphylococcus aureus A-9537; experiment: MIC, standard tube dilution procedure; format: cell-based; conditions: A9537
[5] = system: Escherichia coli A-15119; experiment: MIC, standard tube dilution procedure; format: cell-based; conditions: A15119
[6] = system: Escherichia coli A-21780; experiment: MIC, standard tube dilution procedure; format: cell-based; conditions: A21780
[7] = system: Klebsiella pneumoniae A-9977; experiment: MIC, standard tube dilution procedure; format: cell-based; conditions: A9977
[8] = system: Proteus mirabilis A-9900; experiment: MIC, standard tube dilution procedure; format: cell-based; conditions: A9900
[9] = system: Candida albicans A-9540; experiment: MIC, standard tube dilution procedure; format: cell-based; conditions: A9540
[10] = system: Candida tropicalis A-15051; experiment: MIC, standard tube dilution procedure; format: cell-based; conditions: A15051
[11] = system: Candida krusei A-15052; experiment: MIC, standard tube dilution procedure; format: cell-based; conditions: Pichia kudriavzevii, A15052
[12] = system: Cryptococcus neoformans A-1503; experiment: MIC, standard tube dilution procedure; format: cell-based; conditions: A1503
[13] = system: Trichophyton mentagrophytes A-9870; experiment: MIC, standard tube dilution procedure; format: cell-based; conditions: A9870
[14] = acute intraperitoneal LD50 in mice; conditions: mouse, in vivo, ip
[15] = Solubility; format: physicochemical
[16] = activity of column fractions of bohemic acid complex; conditions: Example 8 large scale fractionation
Method: Sephadex LH-20 soaked for 68 hours in chloroform was slurry packed into a Pharmacia SR 25/100 column (25 mm. I.D. × 100 cm. height) equipped with adjustable teflon tips at each end. The column was packed so as to be completely filled from tip to tip, an effective bed height of 90-95 cm. Bohemic acid complex (500 mg.) was dissolved in 10 ml. chloroform and applied to the column which was then allowed to develop with chloroform by downflow at a take-off rate of 1 ml./min. Eluted liquid was collected in 6 ml. cuts in a fraction collector. Samplings of even numbered tubes were diluted 80-fold with chloroform and read in a Bausch and Lomb Spectronic 20 colorimeter at 490 mμ. Four distinct bands of anthracycline pigments were noted as follows:
The solids obtained were chromatographed on Brinkmann 60F254 silica gel thin layer plates using an 80:20 toluene:methanol solvent system. […] The second band gave a characteristic pinkish red zone at about Rf =0.75. […] The third fraction to elute gave a single zone with Rf ~0.3. […] The final band to elute gave a zone at Rf ~0.3 and comprised mainly marcellomycin. […]
A 6 inch (diameter) × 77 inch (height) glass column was equipped at the base with a no clog filter on top of which was placed a layer of glass wool followed by a circular polyethylene frit. […] Aliquots of every fifth fraction were diluted and analyzed as described in Example 7. […]

[17] = system: P-388 leukemia; experiment: transplanted mouse leukemia P-388 (ascitic); conditions: for Avg. wt. Difference (T-C, g.) / T/C Percent MST: single i.p. injection Day 1
Method: (§1) The compounds of the present invention were also tested against various transplantable rodent tumer systems.
(§2) Single injection Day 1 intraperitoneally.?
(§3) T/C percent MST=median survival time in days: Treated/Control × 100

[18] = system: L-1210 leukemia; experiment: transplanted mouse leukemia L-1210 (ascitic); conditions: for Avg. wt. Difference (T-C, g.) / T/C Percent MST: single i.p. injection Day 1
Method: as §1, §2, §3

[19] = system: L-1210 leukemia; experiment: L-1210 mouse leukemia, purified compounds, BDF1 female mice
Method: Inoculum: 10^6 ascitic cells, i.p. into BDF1 female mice
Treatment: i.p. in 0.5 ml. volume
Evaluation: MST = median survival time in days; %T/C = MST treated/MST
(prolongation of host survival)

[20] = 3.2 mg/kg/day i.p., Day 1, 1 injection
[21] = 3.2 mg/kg/day i.p., Day 1→5, 5 injections
[22] = 6.4 mg/kg/day i.p., Day 1, 1 injection
[23] = 6.4 mg/kg/day i.p., Day 1→5, 5 injections
[24] = 12.8 mg/kg/day i.p., Day 1, 1 injection
[25] = .2 mg/kg/day i.p., Day 1→5, 5 injections
[26] = .4 mg/kg/day i.p., Day 1, 1 injection
[27] = .4 mg/kg/day i.p., Day 1→5, 5 injections
[28] = .8 mg/kg/day i.p., Day 1, 1 injection
[29] = .8 mg/kg/day i.p., Day 1→5, 5 injections
[30] = 6.4 mg/kg/day i.p., Day 1→5, 4 injections

CC[C@@]1(O)C[C@H](O[C@H]2C[C@H](N(C)C)[C@H](O[C@H]3C[C@H](O)[C@H](O)[C@H](C)O3)[C@H](C)O2)c2c(cc3c(c2O)C(=O)c2c(O)ccc(O)c2C3=O)[C@H]1C(=O)OC [musettamycin]
MIC ([1]; in vitro, Streptococcus pneumoniae A-9585, read-out: MIC): 0.06 µg/mL (≈ 0.0838 µM) | MIC ([2]; in vitro, Streptococcus pyogenes A-9604, read-out: MIC): 0.06 µg/mL (≈ 0.0838 µM) | MIC ([3]; in vitro, Staphylococcus aureus A-9497, read-out: MIC): 0.5 µg/mL (≈ 0.699 µM) | MIC ([4]; in vitro, Staphylococcus aureus A-9537, read-out: MIC): 1 µg/mL (≈ 1.4 µM) | MIC ([5]; in vitro, Escherichia coli A-15119, read-out: MIC): > 125 µg/mL | MIC ([6]; in vitro, Escherichia coli A-21780, read-out: MIC): 32 µg/mL (≈ 44.7 µM) | MIC ([7]; in vitro, Klebsiella pneumoniae A-9977, read-out: MIC): > 125 µg/mL | MIC ([8]; in vitro, Proteus mirabilis A-9900, read-out: MIC): > 125 µg/mL | MIC ([9]; in vitro, Candida albicans A-9540, read-out: MIC): 125 µg/mL (≈ 175 µM) | MIC ([10]; in vitro, Candida tropicalis A-15051, read-out: MIC): 63 µg/mL (≈ 88 µM) | MIC ([11]; in vitro, Candida krusei A-15052, read-out: MIC): 125 µg/mL (≈ 175 µM) | MIC ([12]; in vitro, Cryptococcus neoformans A-1503, read-out: MIC): 63 µg/mL (≈ 88 µM) | MIC ([13]; in vitro, Trichophyton mentagrophytes A-9870, read-out: MIC): > 125 µg/mL | LD50 [14]: 9.8 to 21.1 mg/kg | Solubility ([15]; organic solvents): Soluble in most organic solvents | Solubility ([15]; water, aliphatic hydrocarbons and ether): insoluble in water, aliphatic hydrocarbons and ether | activity of fraction [16]: active | Avg. wt. Difference (T-C, g.) ([17]; 3.2 mg/kg): -3.0 g | T/C Percent MST ([17]; 3.2 mg/kg): 145% | Avg. wt. Difference (T-C, g.) ([17]; 6.4 mg/kg): -3.4 g | T/C Percent MST ([17]; 6.4 mg/kg): 160% | Avg. wt. Difference (T-C, g.) ([17]; .2 mg/kg): -2.1 g | T/C Percent MST ([17]; .2 mg/kg): 120% | Avg. wt. Difference (T-C, g.) ([17]; .4 mg/kg): -1.6 g | T/C Percent MST ([17]; .4 mg/kg): 135% | Avg. wt. Difference (T-C, g.) ([17]; .8 mg/kg): -2.0 g | T/C Percent MST ([17]; .8 mg/kg): 140% | Avg. wt. Difference (T-C, g.) ([18]; 3.2 mg/kg): -2.5 g | T/C Percent MST ([18]; 3.2 mg/kg): 120% | Avg. wt. Difference (T-C, g.) ([18]; 6.4 mg/kg): -2.5 g | T/C Percent MST ([18]; 6.4 mg/kg): 140% | Avg. wt. Difference (T-C, g.) ([18]; .8 mg/kg): -1.1 g | T/C Percent MST ([18]; .8 mg/kg): 107% | Average Weight Change in g. [19, 20]: +0.3 g. | MST %T/C [19, 20]: 129% | MST Days [19, 20]: 9.0 days | Average Weight Change [19, 21]: -1.3 g | MST %T/C [19, 21]: 157% | MST Days [19, 21]: 11.0 days | Average Weight Change in g. [19, 22]: +0.5 g. | MST %T/C [19, 22]: 143% | MST Days [19, 22]: 10.0 days | Average Weight Change [19, 23]: -1.5 g | MST %T/C [19, 23]: 86% | MST Days [19, 23]: 6.0 days | Average Weight Change [19, 24]: -0.6 g | MST %T/C [19, 24]: 150% | MST Days [19, 24]: 10.5 days | Average Weight Change in g. [19, 25]: +1.8 g. | MST %T/C [19, 25]: 129% | MST Days [19, 25]: 9.0 days | Average Weight Change in g. [19, 26]: +1.3 g. | MST %T/C [19, 26]: 114% | MST Days [19, 26]: 8.0 days | Average Weight Change in g. [19, 27]: +0.6 g. | MST %T/C [19, 27]: 129% | MST Days [19, 27]: 9.0 days | Average Weight Change in g. [19, 28]: +1.2 g. | MST %T/C [19, 28]: 121% | MST Days [19, 28]: 8.5 days | Average Weight Change in g. [19, 29]: +0.4 g. | MST %T/C [19, 29]: 136% | MST Days [19, 29]: 9.5 days

CC[C@@]1(O)C[C@H](O[C@H]2C[C@H](N(C)C)[C@H](O[C@H]3C[C@H](O)[C@H](O[C@H]4C[C@H](O)[C@H](O)[C@H](C)O4)[C@H](C)O3)[C@H](C)O2)c2c(cc3c(c2O)C(=O)c2c(O)ccc(O)c2C3=O)[C@H]1C(=O)OC [marcellomycin]
MIC ([1]; Streptococcus pneumoniae): 0.03 µg/mL (≈ 0.0355 µM) | MIC ([2]; Streptococcus pyogenes): 0.03 µg/mL (≈ 0.0355 µM) | MIC ([3]; Staphylococcus aureus): 1 µg/mL (≈ 1.18 µM) | MIC ([4]; Staphylococcus aureus): 1 µg/mL (≈ 1.18 µM) | MIC ([5]; Escherichia coli): 125 µg/mL (≈ 148 µM) | MIC ([6]; Escherichia coli): 32 µg/mL (≈ 37.8 µM) | MIC ([7]; Klebsiella pneumoniae): 125 µg/mL (≈ 148 µM) | MIC ([8]; Proteus mirabilis): > 125 µg/mL | MIC ([9]; Candida albicans): 125 µg/mL (≈ 148 µM) | MIC ([10]; Candida tropicalis): 125 µg/mL (≈ 148 µM) | MIC [11]: 125 µg/mL (≈ 148 µM) | MIC ([12]; Cryptococcus neoformans): 125 µg/mL (≈ 148 µM) | MIC ([13]; Trichophyton mentagrophytes): > 125 µg/mL | LD50 [14]: 6.35 to 10.6 mg/kg | activity on P-388 mouse leukemia ([17]; Example 7 column fraction): high activity | activity on L-1210 mouse leukemia ([18]; Example 7 column fraction): high activity | Average Weight Change [19, 20]: -0.7 g | MST %T/C [19, 20]: 157% | MST Days [19, 20]: 11.0 days | Survivors Day 5 [19, 20]: 6/6 | Average Weight Change [19, 21]: -1.2 g | MST %T/C [19, 21]: 86% | MST Days [19, 21]: 6.0 days | Survivors Day 5 [19, 21]: 3/6 | Average Weight Change [19, 22]: -0.7 g | MST %T/C [19, 22]: 157% | MST Days [19, 22]: 11.0 days | Survivors Day 5 [19, 22]: 6/6 | Average Weight Change in g. [19, 30]: TOXIC | MST %T/C [19, 30]: TOXIC | MST Days [19, 30]: TOXIC | Survivors Day 5 [19, 30]: 0/6 | Average Weight Change [19, 24]: -0.7 g | MST %T/C [19, 24]: 143% | MST Days [19, 24]: 10.0 days | Survivors Day 5 [19, 24]: 3/6 | Average Weight Change [19, 25]: -1.1 g | MST %T/C [19, 25]: 129% | MST Days [19, 25]: 9.0 days | Survivors Day 5 [19, 25]: 6/6 | Average Weight Change [19, 26]: -0.8 g | MST %T/C [19, 26]: 129% | MST Days [19, 26]: 9.0 days | Survivors Day 5 [19, 26]: 6/6 | Average Weight Change [19, 27]: 0 g | MST %T/C [19, 27]: 129% | MST Days [19, 27]: 9.0 days | Survivors Day 5 [19, 27]: 6/6 | Average Weight Change [19, 28]: 0 g | MST %T/C [19, 28]: 150% | MST Days [19, 28]: 10.5 days | Survivors Day 5 [19, 28]: 6/6 | Average Weight Change [19, 29]: -0.2 g | MST %T/C [19, 29]: 143% | MST Days [19, 29]: 10.0 days | Survivors Day 5 [19, 29]: 6/6 | potency relative to musettamycin in inhibitory effects on L-1210 ([19]; purified, L-1210 mouse leukemia): about four times
